# From US9504729B2, “Antiangiogenic small molecules and methods of use” (The United States of America, as represented by the …, priority 2009, dated 2016)
# System: angiogenesis genes in dermal microvascular endothelial cells
# Assay: Real time RT-PCR of angiogenesis gene expression during endothelial tube formation
# Format: cell-based
# Conditions: 1 μM SM, 24 hours
# Procedure: For gene expression studies, three independent experiments were run for each SM tested. 90.000 cells/well (6 wells/treatment) of dermal microvascular endothelial cells (Lonza, Walkersville, Md.) were seeded on polymerized GELTREX™ gel matrix (Invitrogen, Carlsbad, Calif.) in 24 well plates. Wells were immediately treated with the same volume of 1 μM SM or PBS. After 24 hours incubation at 37° C. and 5% CO2, cells were extracted using Cell Recovery Solution (BD Biosciences, San Jose, Calif., Cat. #354253). Total RNA was extracted with the RNeasy Mini Kit (Qiagen, Valencia, Calif., Cat. #74104), and retrotranscribed using […]® First-Strand reverse transcriptase (Invitrogen, Carlsbad, Calif., Cat. #11904-018). The real time PCR reactions were performed in an Opticon 2 cycler (MJ Research, Waltham, Mass.). Amplification was performed in a final volume of 25 μl, containing 2 μl cDNA (1:10 dilution from the reversed transcribed reaction) and 2 μl of primer mixture (10 μM each of forward and reverse primers). Samples were amplified as follows: after initial denaturation at 95 C for 2 minutes, reactions were run for 46 cycles at 95° C. for 30 seconds, 60° C. for 30 seconds, and 72° C. for 45 seconds. Fluorescence was measured in every cycle and a melting curve was run after the PCR by increasing temperature from 50 to 96° C. (in 0.5° C. increments). A defined single peak was obtained for all amplicons, thus confirming the specificity of the amplification.
# The genes that were monitored were selected based on their relevance to the angiogenesis process. All experiments were done in triplicate. The results are shown in the volcano plots of FIG. 17. Log 2 fold-change is presented in the X-axis and log 10 P value in the Y-axis.
compound,measurement,setting,value
COC(=O)C1CC(=O)C(C(=O)OC)CC1=O (stereo not drawn) [Compound 122567],Log2 fold-change of gene expression: Kifc1,,1.1
same,Log2 fold-change of gene expression: LAMAS5,,−1.1
same,Log2 fold-change of gene expression: LECT1,,0.3
same,Log2 fold-change of gene expression: LEP,,0.2
same,Log2 fold-change of gene expression: Lasts2,,4.8
same,Log2 fold-change of gene expression: Lrrk1,,−0.5
same,Log2 fold-change of gene expression: MDK,,−0.9
same,Log2 fold-change of gene expression: MMP2,,0.3
same,Log2 fold-change of gene expression: MMP9,,0.9
same,Log2 fold-change of gene expression: MMP11,,1.3
same,Log2 fold-change of gene expression: MRC2,,0.7
same,Log2 fold-change of gene expression: Mmm2,,−3.5
same,Log2 fold-change of gene expression: Myo1b,,−2.9
same,Log2 fold-change of gene expression: NID1,,−6.3
same,Log2 fold-change of gene expression: NM023516,,0.2
same,Log2 fold-change of gene expression: NRP1,,−3.0
same,Log2 fold-change of gene expression: NRP2,,−4.3
same,Log2 fold-change of gene expression: Notch4,,−1.1
same,Log2 fold-change of gene expression: Npr3,,1.5
same,Log2 fold-change of gene expression: PALD,,−0.5
same,Log2 fold-change of gene expression: PDCD2,,−0.4
same,Log2 fold-change of gene expression: PDGFA,,−1.7
same,Log2 fold-change of gene expression: PECAM1,,−2.7
same,Log2 fold-change of gene expression: PGF,,−4.9
same,Log2 fold-change of gene expression: PLAU,,−0.1
same,Log2 fold-change of gene expression: PLG,,−1.5
same,Log2 fold-change of gene expression: PNMT,,1.1
same,Log2 fold-change of gene expression: PROK2,,1.3
same,Log2 fold-change of gene expression: PTGS1,,0.8
same,Log2 fold-change of gene expression: PTPRCAP,,0.0
same,Log2 fold-change of gene expression: Pltp,,1.5
same,Log2 fold-change of gene expression: Ptprb,,0.5
same,Log2 fold-change of gene expression: Ptprm,,−0.4
same,Log2 fold-change of gene expression: RAMP2,,−5.8
same,Log2 fold-change of gene expression: RASD2,,0.5
same,Log2 fold-change of gene expression: Rasip1,,−1.2
same,Log2 fold-change of gene expression: S1PR1,,−0.7
same,Log2 fold-change of gene expression: SERPINF1,,0.2
same,Log2 fold-change of gene expression: SPHK1,,0.9
same,Log2 fold-change of gene expression: STAB1,,−1.7
same,Log2 fold-change of gene expression: Sdc4,,0.4
same,Log2 fold-change of gene expression: Sdpr,,1.6
same,Log2 fold-change of gene expression: Slc43a3,,1.8
same,Log2 fold-change of gene expression: Slco2a1,,−0.6
same,Log2 fold-change of gene expression: TEK,,0.3
same,Log2 fold-change of gene expression: TGFA,,2.0
same,Log2 fold-change of gene expression: TGFB1,,−1.2
same,Log2 fold-change of gene expression: TGFB2,,1.2
same,Log2 fold-change of gene expression: TGFBR1,,1.2
same,Log2 fold-change of gene expression: THBS1,,0.1
same,Log2 fold-change of gene expression: THBS2,,1.2
same,Log2 fold-change of gene expression: THY1,,−9.4
same,Log2 fold-change of gene expression: TIMP1,,−1.4
same,Log2 fold-change of gene expression: TIMP2,,−1.4
same,Log2 fold-change of gene expression: TIMP3,,−4.3
same,Log2 fold-change of gene expression: TNF,,−0.2
same,Log2 fold-change of gene expression: TNS1,,0.0
same,Log2 fold-change of gene expression: TNS3,,2.0
same,Log2 fold-change of gene expression: TRA2B,,−1.6
same,Log2 fold-change of gene expression: TYMP,,−0.3
same,Log2 fold-change of gene expression: VEGFA,,4.9
same,Log2 fold-change of gene expression: VEGFC,,1.8
same,Log2 fold-change of gene expression: VGLL4,,−3.5
same,Log2 fold-change of gene expression: Vwf,,−3.5
same,Log2 fold-change of gene expression: copa,,0.1
same,Log2 fold-change of gene expression: itbp4,,−1.9
same,Log2 fold-change of gene expression: ralb,,0.3
same,Log2 fold-change of gene expression: stard9,,0.5
same,Log2 fold-change of gene expression: B2M,1st listing (r49),0.1
same,Log2 fold-change of gene expression: HPRT1,1st listing (r50),0.0
same,Log2 fold-change of gene expression: RPL13A,1st listing (r51),0.7
same,Log2 fold-change of gene expression: GADPH,1st listing (r52),−0.7
same,Log2 fold-change of gene expression: ACTB,1st listing (r53),−1.0
same,Log2 fold-change of gene expression: PLXDC1,1st listing (r74),0.7
same,Log2 fold-change of gene expression: TNFAIP2,1st listing (r91),−1.0
same,Log2 fold-change of gene expression: Robo4,1st listing (r95),0.0
same,Log2 fold-change of gene expression: 151516,1st listing (r134),1.1
same,Log2 fold-change of gene expression: TNFAIP2,2nd listing (r92),−1.1
same,Log2 fold-change of gene expression: B2M,2nd listing (r97),−0.2
same,Log2 fold-change of gene expression: HPRT1,2nd listing (r98),0.0
same,Log2 fold-change of gene expression: RPL13A,2nd listing (r99),1.2
same,Log2 fold-change of gene expression: GADPH,2nd listing (r100),−0.8
same,Log2 fold-change of gene expression: ACTB,2nd listing (r101),−1.0
same,Log2 fold-change of gene expression: PLXDC1,2nd listing (r104),−1.7
same,Log2 fold-change of gene expression: 151516,2nd listing (r139),1.3
same,Log2 fold-change of gene expression: Robo4,2nd listing (r188),1.2
same,Log2 fold-change of gene expression: B2M,3rd listing (r145),−0.2
same,Log2 fold-change of gene expression: HPRT1,3rd listing (r146),−0.6
same,Log2 fold-change of gene expression: RPL13A,3rd listing (r147),0.9
same,Log2 fold-change of gene expression: GADPH,3rd listing (r148),−0.7
same,Log2 fold-change of gene expression: ACTB,3rd listing (r149),−0.5
same,Log2 fold-change of gene expression: B2M,4th listing (r193),0.3
same,Log2 fold-change of gene expression: HPRT1,4th listing (r194),−0.2
same,Log2 fold-change of gene expression: RPL13A,4th listing (r195),1.3
same,Log2 fold-change of gene expression: GADPH,4th listing (r196),−2.0
same,Log2 fold-change of gene expression: ACTB,4th listing (r197),−0.1
